According to ChEMBL document CHEMBL1201862, “PubChem BioAssay data set” (2004):
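How tested: cells in 96-well plates exposed to compound for 48 hours at five concentrations. GI50 is the concentration that inhibits growth by half.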 Calls of active or inactive are those of the source. Cut-off read from the data, not from the text of the source: active = GI50 up to about 1.1 µM and inactive = higher.

Assays:
Experiment in all cases: NCI tumour cell line growth inhibition, 48 h
786-0 = tested on: 786-0
A549 = tested on: A549
ACHN = tested on: ACHN
CAKI-1 = tested on: CAKI-1
CCRF-CEM = tested on: CCRF-CEM
COLO 205 = tested on: COLO 205
DU-145 = tested on: DU-145
HCC 2998 = tested on: HCC 2998
HCT-116 = tested on: HCT-116
HCT-15 = tested on: HCT-15
HOP-62 = tested on: HOP-62
HOP-92 = tested on: HOP-92
HT-29 = tested on: HT-29
Hs-578T = tested on: Hs-578T
IGROV-1 = tested on: IGROV-1
K562 = tested on: K562
KM12 = tested on: KM12
LOX IMVI = tested on: LOX IMVI
M14 = tested on: M14
MCF7 = tested on: MCF7
MDA-MB-231 = tested on: MDA-MB-231
MDA-MB-435 = tested on: MDA-MB-435
MDA-N = tested on: MDA-N
MOLT-4 = tested on: MOLT-4
Malme-3M = tested on: Malme-3M
NCI-H226 = tested on: NCI-H226
NCI-H23 = tested on: NCI-H23
NCI-H460 = tested on: NCI-H460
NCI-H522 = tested on: NCI-H522
NCI/ADR-RES = tested on: NCI/ADR-RES
OVCAR-3 = tested on: OVCAR-3
OVCAR-4 = tested on: OVCAR-4
OVCAR-5 = tested on: OVCAR-5
OVCAR-8 = tested on: OVCAR-8
PC-3 = tested on: PC-3
RPMI-8226 = tested on: RPMI-8226
RXF 393 = tested on: RXF 393
SF-268 = tested on: SF-268
SF-295 = tested on: SF-295
SF-539 = tested on: SF-539
SK-MEL-28 = tested on: SK-MEL-28
SK-MEL-5 = tested on: SK-MEL-5
SK-OV-3 = tested on: SK-OV-3
SN12C = tested on: SN12C
SNB-19 = tested on: SNB-19
SNB-75 = tested on: SNB-75
SR = tested on: SR
SW-620 = tested on: SW-620
T47D = tested on: T47D
TK-10 = tested on: TK-10
U-251 = tested on: U-251
UACC-62 = tested on: UACC-62
UO-31 = tested on: UO-31

Measured: GI50

COC(=O)c1nc(Cl)nc(Cl)c1Cl
21.9 µM: HCT-15
inactive: 786-0 17.3 µM | A549 44.1 µM | ACHN 14.4 µM | CAKI-1 18.2 µM | CCRF-CEM 6.49 µM | COLO 205 18.6 µM | DU-145 70.3 µM | HCC 2998 22 µM | HCT-116 18.2 µM | HOP-62 30.2 µM | HOP-92 19.4 µM | HT-29 22.5 µM | Hs-578T 21.8 µM | IGROV-1 22.8 µM | K562 12.2 µM | KM12 22.2 µM | LOX IMVI 13.4 µM | M14 20.7 µM | MCF7 28.2 µM | MDA-MB-231 17.6 µM | MDA-MB-435 15.8 µM | MDA-N 29.5 µM | MOLT-4 10.5 µM | Malme-3M 20.8 µM | NCI-H226 27 µM | NCI-H23 44.7 µM | NCI-H460 32.2 µM | NCI-H522 19.3 µM | NCI/ADR-RES 33.8 µM | OVCAR-3 2.02 µM | OVCAR-4 19.5 µM | OVCAR-5 23.5 µM | OVCAR-8 21 µM | PC-3 14.4 µM | RPMI-8226 1.29 µM | RXF 393 14.4 µM | SF-268 19.1 µM | SF-295 42.3 µM | SF-539 24.5 µM | SK-MEL-28 21.1 µM | SK-MEL-5 18.3 µM | SK-OV-3 41.9 µM | SN12C 20.9 µM | SNB-19 83.8 µM | SNB-75 87.7 µM | SR 15.1 µM | SW-620 16.2 µM | T47D 24.3 µM | TK-10 21.2 µM | U-251 26.1 µM | UACC-62 > 10 µM | UO-31 19.2 µM
